Where a SMILES comes first, the peptide text is derived from it. The star is where a group is joined. Cbz = O=C(OCc1ccccc1)*; CH2Cl = ClC*
What follows are compounds tested against T1, CIB1 and αIIb interaction (CIB1-GST : F-αIIb peptide) (Homo sapiens, UniProt Q99828) (assay: FP assay, 1536-well qHTS format (primary and confirmatory screen)). Conditions: qHTS primary screen of LOPAC/NPACT libraries; negative = inhibition.
T1 construct: made in house; host or cells: BL-21 plus RIL cells (E. coli)
T1 sequence (Q99828 1-191): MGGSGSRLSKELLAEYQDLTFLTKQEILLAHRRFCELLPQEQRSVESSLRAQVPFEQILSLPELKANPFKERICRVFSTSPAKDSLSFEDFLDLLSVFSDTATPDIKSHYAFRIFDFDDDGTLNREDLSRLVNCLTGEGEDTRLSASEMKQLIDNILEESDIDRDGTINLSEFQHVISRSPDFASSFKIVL
Type: binding

| Efficacy (%) | Structure (SMILES) |
| --- | --- |
| -26% | C=CC(=O)Nc1ccc(CN2C(=O)N(c3cc(OC)cc(OC)c3)Cc3cnc(Nc4ccc(N5CCN(C)CC5)cc4)nc32)cc1 [NCGC00484066-01] |
| -21% | CN1CCN(c2ccc(C(=O)Nc3n[nH]c4ccc(Cc5cc(F)cc(F)c5)cc34)c(NC3CCOCC3)c2)CC1 [NCGC00484067-01] |
| -26% | O=C([C@@H]1CCCN(c2ccc3[nH]c(C4(n5cc(Cl)cn5)CC4)nc3n2)C1)N1CCCC1 [NCGC00485074-01] |
| -29% | CCOc1ccc(Cc2nc(-c3c(C)nc4ccccn34)cs2)cc1 [NCGC00485083-01] |
| -24% | C=C1C(=O)O[C@@H]2[C@H]3C(C)=CC(=O)C3=C(C)CC[C@@H]12 [NCGC00485131-01] |
| -24% | CC(C)C[C@H](NC(=O)CNC(=O)OCc1ccccc1)C(=O)N[C@@H](Cc1ccccc1)C(=O)CCl [NCGC00485375-01] (Cbz-Gly-Leu-Phe-CH2Cl) |
| -32% | CN(C)c1ccc(NC(=O)NS(=O)(=O)c2ccc(Cl)cc2)cc1 [NCGC00485899-01] |
| -25% | Cc1ccc(-c2c(C(=O)CCl)n(CCCO)c3ncnc(N)c23)cc1 [NCGC00485901-01] |
| -26% | O=C(O)/C=C/c1ccc(-c2ccc(O)c(C34CC5CC(CC(C5)C3)C4)c2)cc1 [NCGC00485908-01] |
| -27% | Cc1cc(OCCCS(C)(=O)=O)cc(C)c1-c1cccc(COc2ccc(-c3cc(=O)[nH][s+]3[O-])cc2)c1 (stereo not drawn) [NCGC00485952-01] |
| -27% | COc1cccc(CNC(=O)C2=NC3SC=C(COCc4ccc(C(=O)O)cc4)C3C(=O)N2)c1 (stereo not drawn) [NCGC00488702-01] |

The remaining lines, values behind:

| Structure (SMILES) | Efficacy (%) |
| --- | --- |
| N#C/C(=C1\Nc2ccccc2S1)c1ccnc(NCCc2cccnc2)n1 [NCGC00387772-02] | -26% |
| N=C(N)c1ccc2c(c1)N/C(=C1/C=C(CC(=O)NC(CC(=O)O)C(=O)O)C=C(c3cc(S(N)(=O)=O)ccc3O)C1=O)N2 (stereo not drawn) [NCGC00387860-01] | -31% |
| O=C(Nc1ncc([N+](=O)[O-])s1)c1ccccc1O [NCGC00388427-01] | -31% |
| COc1ccnc(C[S+]([O-])c2nc3cc(OC(F)F)ccc3[nH]2)c1OC (stereo not drawn) [NCGC00388526-02] | -26% |
| COc1cc(Nc2cc(C#N)nc3cc(OCCCN4CCN(C)CC4)c(OC)cc23)c(Cl)cc1Cl [NCGC00390366-01] | -33% |
| Nc1nccn2c(C3CCC(C(=O)O)CC3)nc(-c3cc4cccc(Cl)c4[nH]3)c12 (stereo not drawn) [NCGC00390408-01] | -33% |
| COc1cc(N2CCC(N3CCN(C)CC3)CC2)ccc1Nc1ncc(Cl)c(-c2c[nH]c3ccccc23)n1 [NCGC00390583-01] | -31% |
| COc1cc(Nc2ccc([N+](=O)[O-])cc2C(=O)O)cc2ccccc12 [NCGC00402240-03] | -27% |
| CCCc1n[nH]c2c1C(c1cc(Cl)cc(Cl)c1O)C(C#N)=C(N)O2 (stereo not drawn) [NCGC00402340-02] | -29% |
| Cc1sc2c(c1C)C(c1ccc(Cl)cc1)=N[C@@H](CC(=O)Nc1ccc(OCCOCCOCCOCCNc3cccc4c3C(=O)N(C3CCC(=O)NC3=O)C4=O)cc1)c1nnc(C)n1-2 (stereo partly drawn) [NCGC00483927-01] | -26% |
| Oc1ccc2c3c1O[C@H]1c4[nH]c5c(N=C=S)cccc5c4C[C@@]4(O)[C@@H](C2)N(CC2CC2)CC[C@]314 [NCGC00485321-01] | -30% |

Same assay, conditions: qHTS primary screen of LOPAC/NPACT libraries; negative sign = inhibitory curve

| Curve Class | Structure (SMILES) |
| --- | --- |
| -2.4 | C=CC(=O)Nc1ccc(CN2C(=O)N(c3cc(OC)cc(OC)c3)Cc3cnc(Nc4ccc(N5CCN(C)CC5)cc4)nc32)cc1 [NCGC00484066-01] |
| -2.4 | CN1CCN(c2ccc(C(=O)Nc3n[nH]c4ccc(Cc5cc(F)cc(F)c5)cc34)c(NC3CCOCC3)c2)CC1 [NCGC00484067-01] |
| -2.4 | O=C([C@@H]1CCCN(c2ccc3[nH]c(C4(n5cc(Cl)cn5)CC4)nc3n2)C1)N1CCCC1 [NCGC00485074-01] |
| -2.4 | CCOc1ccc(Cc2nc(-c3c(C)nc4ccccn34)cs2)cc1 [NCGC00485083-01] |
| -1.4 | C=C1C(=O)O[C@@H]2[C@H]3C(C)=CC(=O)C3=C(C)CC[C@@H]12 [NCGC00485131-01] |
| -2.4 | CC(C)C[C@H](NC(=O)CNC(=O)OCc1ccccc1)C(=O)N[C@@H](Cc1ccccc1)C(=O)CCl [NCGC00485375-01] (Cbz-Gly-Leu-Phe-CH2Cl) |
| -2.4 | CN(C)c1ccc(NC(=O)NS(=O)(=O)c2ccc(Cl)cc2)cc1 [NCGC00485899-01] |
| -1.4 | Cc1ccc(-c2c(C(=O)CCl)n(CCCO)c3ncnc(N)c23)cc1 [NCGC00485901-01] |
| -2.4 | O=C(O)/C=C/c1ccc(-c2ccc(O)c(C34CC5CC(CC(C5)C3)C4)c2)cc1 [NCGC00485908-01] |
| -1.4 | Cc1cc(OCCCS(C)(=O)=O)cc(C)c1-c1cccc(COc2ccc(-c3cc(=O)[nH][s+]3[O-])cc2)c1 (stereo not drawn) [NCGC00485952-01] |
| -1.4 | COc1cccc(CNC(=O)C2=NC3SC=C(COCc4ccc(C(=O)O)cc4)C3C(=O)N2)c1 (stereo not drawn) [NCGC00488702-01] |

The remaining lines, values behind:

| Structure (SMILES) | Curve Class |
| --- | --- |
| N#C/C(=C1\Nc2ccccc2S1)c1ccnc(NCCc2cccnc2)n1 [NCGC00387772-02] | -1.4 |
| N=C(N)c1ccc2c(c1)N/C(=C1/C=C(CC(=O)NC(CC(=O)O)C(=O)O)C=C(c3cc(S(N)(=O)=O)ccc3O)C1=O)N2 (stereo not drawn) [NCGC00387860-01] | -1.4 |
| O=C(Nc1ncc([N+](=O)[O-])s1)c1ccccc1O [NCGC00388427-01] | -2.4 |
| COc1ccnc(C[S+]([O-])c2nc3cc(OC(F)F)ccc3[nH]2)c1OC (stereo not drawn) [NCGC00388526-02] | -2.4 |
| COc1cc(Nc2cc(C#N)nc3cc(OCCCN4CCN(C)CC4)c(OC)cc23)c(Cl)cc1Cl [NCGC00390366-01] | -2.4 |
| Nc1nccn2c(C3CCC(C(=O)O)CC3)nc(-c3cc4cccc(Cl)c4[nH]3)c12 (stereo not drawn) [NCGC00390408-01] | -2.4 |
| COc1cc(N2CCC(N3CCN(C)CC3)CC2)ccc1Nc1ncc(Cl)c(-c2c[nH]c3ccccc23)n1 [NCGC00390583-01] | -2.4 |
| COc1cc(Nc2ccc([N+](=O)[O-])cc2C(=O)O)cc2ccccc12 [NCGC00402240-03] | -2.4 |
| CCCc1n[nH]c2c1C(c1cc(Cl)cc(Cl)c1O)C(C#N)=C(N)O2 (stereo not drawn) [NCGC00402340-02] | -2.4 |
| Cc1sc2c(c1C)C(c1ccc(Cl)cc1)=N[C@@H](CC(=O)Nc1ccc(OCCOCCOCCOCCNc3cccc4c3C(=O)N(C3CCC(=O)NC3=O)C4=O)cc1)c1nnc(C)n1-2 (stereo partly drawn) [NCGC00483927-01] | -2.4 |
| Oc1ccc2c3c1O[C@H]1c4[nH]c5c(N=C=S)cccc5c4C[C@@]4(O)[C@@H](C2)N(CC2CC2)CC[C@]314 [NCGC00485321-01] | -2.4 |

Same assay, conditions: qHTS primary screen of LOPAC/NPACT libraries; read-out: IC50

| IC50 | Structure (SMILES) |
| --- | --- |
| 56.2 µM | C=CC(=O)Nc1ccc(CN2C(=O)N(c3cc(OC)cc(OC)c3)Cc3cnc(Nc4ccc(N5CCN(C)CC5)cc4)nc32)cc1 [NCGC00484066-01] |
| 56.2 µM | CN1CCN(c2ccc(C(=O)Nc3n[nH]c4ccc(Cc5cc(F)cc(F)c5)cc34)c(NC3CCOCC3)c2)CC1 [NCGC00484067-01] |
| 70.8 µM | O=C([C@@H]1CCCN(c2ccc3[nH]c(C4(n5cc(Cl)cn5)CC4)nc3n2)C1)N1CCCC1 [NCGC00485074-01] |
| 44.7 µM | CCOc1ccc(Cc2nc(-c3c(C)nc4ccccn34)cs2)cc1 [NCGC00485083-01] |
| 10 µM | C=C1C(=O)O[C@@H]2[C@H]3C(C)=CC(=O)C3=C(C)CC[C@@H]12 [NCGC00485131-01] |
| 22.4 µM | CC(C)C[C@H](NC(=O)CNC(=O)OCc1ccccc1)C(=O)N[C@@H](Cc1ccccc1)C(=O)CCl [NCGC00485375-01] (Cbz-Gly-Leu-Phe-CH2Cl) |
| 50.1 µM | CN(C)c1ccc(NC(=O)NS(=O)(=O)c2ccc(Cl)cc2)cc1 [NCGC00485899-01] |
| 3.5 µM | Cc1ccc(-c2c(C(=O)CCl)n(CCCO)c3ncnc(N)c23)cc1 [NCGC00485901-01] |
| 44.7 µM | O=C(O)/C=C/c1ccc(-c2ccc(O)c(C34CC5CC(CC(C5)C3)C4)c2)cc1 [NCGC00485908-01] |
| 4 µM | Cc1cc(OCCCS(C)(=O)=O)cc(C)c1-c1cccc(COc2ccc(-c3cc(=O)[nH][s+]3[O-])cc2)c1 (stereo not drawn) [NCGC00485952-01] |
| 5.6 µM | COc1cccc(CNC(=O)C2=NC3SC=C(COCc4ccc(C(=O)O)cc4)C3C(=O)N2)c1 (stereo not drawn) [NCGC00488702-01] |

The next lines start with the compound.

| Structure (SMILES) | IC50 |
| --- | --- |
| N#C/C(=C1\Nc2ccccc2S1)c1ccnc(NCCc2cccnc2)n1 [NCGC00387772-02] | 5.6 µM |
| N=C(N)c1ccc2c(c1)N/C(=C1/C=C(CC(=O)NC(CC(=O)O)C(=O)O)C=C(c3cc(S(N)(=O)=O)ccc3O)C1=O)N2 (stereo not drawn) [NCGC00387860-01] | 7.1 µM |
| O=C(Nc1ncc([N+](=O)[O-])s1)c1ccccc1O [NCGC00388427-01] | 44.7 µM |
| COc1ccnc(C[S+]([O-])c2nc3cc(OC(F)F)ccc3[nH]2)c1OC (stereo not drawn) [NCGC00388526-02] | 56.2 µM |
| COc1cc(Nc2cc(C#N)nc3cc(OCCCN4CCN(C)CC4)c(OC)cc23)c(Cl)cc1Cl [NCGC00390366-01] | 56.2 µM |
| Nc1nccn2c(C3CCC(C(=O)O)CC3)nc(-c3cc4cccc(Cl)c4[nH]3)c12 (stereo not drawn) [NCGC00390408-01] | 50.1 µM |
| COc1cc(N2CCC(N3CCN(C)CC3)CC2)ccc1Nc1ncc(Cl)c(-c2c[nH]c3ccccc23)n1 [NCGC00390583-01] | 50.1 µM |
| COc1cc(Nc2ccc([N+](=O)[O-])cc2C(=O)O)cc2ccccc12 [NCGC00402240-03] | 50.1 µM |
| CCCc1n[nH]c2c1C(c1cc(Cl)cc(Cl)c1O)C(C#N)=C(N)O2 (stereo not drawn) [NCGC00402340-02] | 44.7 µM |
| Cc1sc2c(c1C)C(c1ccc(Cl)cc1)=N[C@@H](CC(=O)Nc1ccc(OCCOCCOCCOCCNc3cccc4c3C(=O)N(C3CCC(=O)NC3=O)C4=O)cc1)c1nnc(C)n1-2 (stereo partly drawn) [NCGC00483927-01] | 22.4 µM |
| Oc1ccc2c3c1O[C@H]1c4[nH]c5c(N=C=S)cccc5c4C[C@@]4(O)[C@@H](C2)N(CC2CC2)CC[C@]314 [NCGC00485321-01] | 100 µM |

The compounds below were run against T2, GST-CIB1 : F-scrambled peptide (Homo sapiens, UniProt Q99828) (assay: FP scrambled-peptide counter screen, 1536-well format). Conditions: counterscreen.
T2 construct: made in house; host or cells: BL-21 plus RIL cells (E. coli)
T2 sequence (Q99828 1-191): T1 sequence (Q99828 1-191)
Type: binding

| Efficacy (%) (counterscreen) | Structure (SMILES) |
| --- | --- |
| -17% | O=C1c2cccc(O)c2C(=O)c2c(O)cccc21 [NCGC00091367-05] |

Same assay, conditions: counterscreen, YES/NO

| Confirm? (counterscreen) | Structure (SMILES) |
| --- | --- |
| YES | O=C1c2cccc(O)c2C(=O)c2c(O)cccc21 [NCGC00091367-05] |

Same assay, conditions: counterscreen, qHTS curve class; negative sign = inhibitory curve

| Curve Class (counterscreen) | Structure (SMILES) |
| --- | --- |
| 4 | O=C1c2cccc(O)c2C(=O)c2c(O)cccc21 [NCGC00091367-05] |

Source: paper PMC11249646, “Small-Molecule Disruptors of the Interaction between Calcium- and Integrin-Binding Protein 1 and Integrin αIIbβ3 as Novel Antiplatelet Agents” (ACS Pharmacology & Translational Science, 2024)
